The record followed here is patent publication US6620961B1, “Biarylalkylenecarbamic acid derivatives and bacteriocides for agricultural and horticultural use” (Kumiai Chemical Industry Co., Ltd., priority 1997, dated 2003).

The test system of data set [1] is Pseudoperonospora cubensis. The experiment in a line: Test for Preventive Effect on Cucumber Downy Mildew. The data set is classed as in vivo. The arrangement: key: A: No diseased area; B: Diseased area of less than 25%; C: Diseased area of at least 25% but less than 50%; Diseased area of at least 50%. The note with it: cucumber seedlings, wettable powder at 500 ppm active ingredient, 7 days after inoculation. How it is done: Test for Preventive Effect on Cucumber Downy Mildew 9 cucumber seeds (variety: Sagami-hanpaku) were sown in each 9 cmx9 cm polyvinyl chloride pot and grown in a greenhouse for 7 days. […] Then, the seedlings were inoculated with Pseudoperonospora cubensis zoosporangia in suspension by spraying and immediately placed in a moist chamber at 22° C. for 24 hours. Thereafter, the seedlings were placed in a greenhouse. 7 days after the inoculation, the total diseased area in each pot was observed and evaluated on the basis of the standards shown in Table 59. [table]

The melting point is the temperature of the solid-liquid transition. The compound `COC(=O)NC(C)c1cccc(-c2ccc(OC)cc2)c1` (centres unmarked) [3-15, Methyl N-{1-[3-(4-methoxyphenyl)phenyl]ethyl}carbamate] showed a melting point of 117 to 119 °C. Further, in data set [1], the “Evaluation (total diseased area in each pot)” value is reported as “A”.
